From patent US20250326715A1, “NOVEL MAIN PROTEASE INHIBITORS, AND COMPOSITIONS AND METHODS THEREOF” (University of Massachusetts, priority 2023, published 2025)

Experiments:
[1] = tested on: SARS-CoV-2; test: Antiviral activity in SARS-CoV-2-infected K18-hACE2 transgenic mice; format: in vivo; conditions: K18-ACE2 mice; for viral RNA loads and titers in lung tissue vs vehicle control: 72 h treatment; for inflammatory cytokines and chemokines (IFN-β, TNF-α, IL-1β, IL-6) in lung tissue: infected for 72 hours; for protection from SARS-CoV2-induced weight loss and lethality: intranasal 10 mg/kg once daily for 3 days starting 2 h prior to infection; for protection from SARS-CoV-2-induced weight loss and lethality: intraperitoneal 25 mg/kg twice daily for 5 days, post-infection; for histopathological analysis of lung tissue: treatment for 5 days
From the text: For these studies, K18-hACE2 transgenic mice (K18-ACE2) were used that express human ACE2 under the control of the epithelial cell cytokeratin-18 (K18) promoter as this model provides robust SARS-CoV-2 infection.
All animal experiments were approved by the Institutional Animal Care Use Committees at the University of Massachusetts Chan Medical School. Animal were kept in a specific pathogen free (SPF) environment. Hemizygous K18-hACE2 C57BL/6J mice (strain: […] (K18-ACE2)2Prlmn/J) were obtained from The Jackson Laboratory. 8-12-week-old male and female mice were anesthetized with isoflurane and infected intranasally with 3×10^4 PFU of SARS-CoV-2. […] Mice were monitored daily for weight loss and survival. Lung samples were collected at indicated time points and placed in a bead homogenizer tube with 1 ml of DMEM+2% FBS for homogenization, then 100 μl of this mixture was placed in PBS for tittering or in 300 μl Trizol LS (Invitrogen) for RNA extraction. For histology, lungs were perfused with 10 U/mL Heparin, intratracheally inflated with 10% buffered-formalin and dissected from mice. Tissues were fixed in 4% paraformaldehyde overnight and embedded in 10% paraffin. Five micrometer thin sections were stained by H&E. Histomorphology, grading of histology scores and evaluation of inflammation of each H&E slide was evaluated by Applied Pathology Systems.

[2] = tested on: OC-43; format: cell-based; conditions: A549-hACE2 cells
[3] = mock-infected mice
[4] = molecular target: M^Pro (Severe acute respiratory syndrome coronavirus 2, UniProt P0DTD1); test: Chemoproteomic enrichment of proteins labelled by SM144 in A549-hACE2 lysate spiked with M^Pro; format: binding, SARS-CoV-2; conditions: 1 μM SM144, lysate spiked with 250 nM M^Pro
Experimental: The proteome-wide selectivity was evaluated via an orthogonal chemoproteomic assay. […] Subsequently, the labeled proteins were biotinylated with copper-catalyzed click chemistry in the presence of Biotin-azide, and the biotinylated proteins were selectively enriched on Streptavidin-agarose beads, proteolyzed with trypsin and analyzed by chemoproteomic analysis. […] There were, however, a few cellular off-targets, including glutathione reductase (GSHR), adenosylhomocysteinase (SAHH), aldose reductase (ALDR), S-adenosylmethionine synthase isoform type-2 (METK2), gamma-actin (ACTG), tubulin alpha-4A chain (TBA4A), ubiquitin-like modifier-activating enzyme 1 (UBA1) and junction plakoglobin (PLAK).
A549-hACE2 cell lysate was prepared as described earlier. Endogenous biotinylated proteins were precleared by incubating the lysates with streptavidin-agarose beads (25 μL for 1 mg of total protein in the lysate) at room temperature for 1 h with constant mixing on an end-over-end shaker. The mixture was centrifuged (1200 g, 3 minute) to separate the beads and the supernatant (pre-cleared lysate). […] The assay mixture was incubated at 25° C. for 30 min. Then Biotin-N3 (200 μM), TCEP (1 mM), TBTA (0.3 mM) and freshly prepared CuSO4 (4 mM) were added sequentially, and the tubes were gently tumbled at room temperature for 2 h. […]

[5] = tested on: A549-hACE2 cells; test: Cytotoxicity assay (LDH release); format: cell-based, human
Experimental: A549-hACE2 cells were treated with indicated doses of inhibitors for 24 hours. Then the media were collected for lactate dehydrogenase (LDH) assay.
Supernatant samples are transferred to a 96-well plate and an equal volume of CytoTox 96® Reagent is added to each well and incubated for 30 min.

[6] = tested on: SARS-CoV-2; format: cell-based; conditions: Huh7.5 cells, 2 μM, 24 h
[7] = Aqueous solubility (comparison in words)
[8] = in vivo; conditions: male, C57Bl/6, mouse
Experimental: Pharmacokinetics were evaluated in male C57Bl/6 mice, approximately 25 g. Test compounds were formulated at 0.3 mg/mL for intravenous dosing and 1 mg/mL for oral gavage. Formulation concentrations reflect free-base concentrations. Formulations were prepared by dissolving in DMSO (20× stock) and mixing 1:1 with tween-80. Prior to dosing, the formulation was diluted with sterile saline. The final formulation was 5% DMSO, 5% tween-80, 90% saline (v:v:v). Mice (n=3) were dosed at 10 μL per gram body weight. […] A total of 25 μL blood was collected at each time point. The hematocrit tubes were sealed with a wax plug and held on ice until plasma could be isolated via centrifugation in a microcentrifuge fit with a hematocrit rotor.
Drug levels were determined from 5 μL plasma. Plasma was treated with 75 μL 90/10 acetonitrile/water containing Carbamazepine as an internal standard (IS). Samples were loaded to a 96-well Millipore Multiscreen Solvinter 0.45 micron low binding PTFE hydrophilic filter plate and the filtrate was directly analyzed. All plasma samples were treated with 75 μL 90/10 acetonitrile/water with Carbamazepine as internal standard (IS) to extract the analyte and precipitate protein. The plates were agitated on ice for approximately five minutes prior to centrifugation into a collection plate. Separate standard curves were prepared in blank mouse plasma and brain homogenate and processed in parallel with the samples. The filtrate was directly analyzed by LC-MS/MS.

CCOC(=O)C=CC(CC1CCNC1=O)NC(=O)C(Cc1ccccc1)NC(=O)C(Cc1ccc(F)cc1)NC(=O)OC(C)(C)C (stereo not drawn) [SM142]
viral RNA loads and titers in lung tissue vs vehicle control [1]: remarkably lower
inflammatory cytokines and chemokines (IFN-β, TNF-α, IL-1β, IL-6) in lung tissue [1]: Reduced inflammatory cytokines and chemokines were detected
protection from SARS-CoV2-induced weight loss and lethality [1]: protects mice from SARS-CoV2-induced weight loss and lethality
protection from SARS-CoV-2-induced weight loss and lethality [1]: protects K18-ACE2 mice from SARS-CoV-2-induced weight loss and lethality
histopathological analysis of lung tissue [1]: significant reduction in lung inflammation and improved overall lung pathology
inhibition of OC-43, in words [2]: inhibit OC-43
weight loss in uninfected mice [3]: no significant weight loss in the uninfected mice

C#CCOCCC(=O)NC(Cc1ccc(F)cc1)C(=O)NC(Cc1ccccc1)C(=O)NC(C=CC(=O)OCC)CC1CCNC1=O (stereo not drawn) [SM144]
proteome-wide selectivity (enriched proteins) [4]: M^Pro is the most statistically significantly enriched protein

CCOC(=O)C=CC(CC1CCNC1=O)NC(=O)C(Cc1ccccc1)NC(=O)C(N)Cc1ccccc1 (stereo not drawn) [SM141]
concentration up to which no notable cytotoxicity is caused ([5]; A549-hACE2 cells, 24 h, LDH): > 50 µM
cytoxcity ([5]; Table 2): >100 µM
antiviral activity, in words [6]: almost completely blocks viral infection
viral RNA loads and titers in lung tissue vs vehicle control [1]: remarkably lower
inflammatory cytokines and chemokines (IFN-β, TNF-α, IL-1β, IL-6) in lung tissue [1]: Reduced inflammatory cytokines and chemokines were detected
protection from SARS-CoV2-induced weight loss and lethality [1]: protects mice from SARS-CoV2-induced weight loss and lethality
protection from SARS-CoV-2-induced weight loss and lethality [1]: protects K18-ACE2 mice from SARS-CoV-2-induced weight loss and lethality
in vivo antiviral efficacy, SM141 compared with SM142 ([1]; survival): better antiviral efficacy
histopathological analysis of lung tissue [1]: significant reduction in lung inflammation and improved overall lung pathology
aqueous solubility, in words [7]: more aqueous solubility than SM142
AUC(0-inf) ([8]; ip): 827 ng·h/mL
AUC(0-t) ([8]; ip): 1.6 µM·h
Cmax ([8]; ip): 2.7 µM
Tmax ([8]; ip): 8.4 min
bioavailability ([8]; ip): 35.2%
half-life ([8]; ip): 48 min
AUC(0-inf) ([8]; iv): 706 ng·h/mL
AUC(0-t) ([8]; iv): 1.3 µM·h
Cmax ([8]; iv): 3.9 µM
MRT inf ([8]; iv): 24 min
Tmax ([8]; iv): 4.8 min
Vd ([8]; iv): 1.6 L/kg
half-life ([8]; iv): 48 min
inhibition of OC-43, in words [2]: inhibit OC-43
weight loss in uninfected mice [3]: no significant weight loss in the uninfected mice
